Test results published in patent US10662174B2, “BTK inhibitor” (Hubei Bio-Pharmaceutical Industrial Technological Institute …, priority 2015, dated 2020).

Biological target: T1, BTK kinase (Homo sapiens, UniProt Q06187)
T1 construct: purchased Invitrogen PR5442A
Test: Assay of inhibition activity of BTK in vitro (HTRF kit, read on Envision)
Type: biochemical
Settings: 1.0 nM BTK, 1 μM biotin-TK1 peptide, 20 μM ATP, 23° C., tested by Envision; read-out: BTK IC50
Description: Assay of Inhibition Activity of BTK In Vitro
The inhibition of compounds on BTK kinase was evaluated by […] detected by Envision, using the IC50 value of the compounds as index.
BTK kinase: Invitrogen-PR5442A
HTRF Assay Kit: Cisbio-62TKOPEJ
Plate for compound preparation: Greiner-781280
Cisbio HTRF Kit: Cisbio-62TKOPEJ
Centrifuge: Eppendorf-5810R
Bravo: Agilent Technologies-Bravo
Gradient Dilution of Compounds: […]
The test compound was dissolved with DMSO to be of 1 mM as a stock solution. Such a stock solution was diluted with DMSO by 10-fold, thereby obtaining an initial solution in a concentration of […] which was added into wells at the second column in a plate. 20 μL DMSO was added to other wells using Bravo. Then, 10 μL of the initial solution was transferred from wells at the second column to wells at the third column, followed by mixing obtained solution in the wells at the third column, thereby obtain a first diluted solution in a concentration of 1/3 μM. Subsequently, 10 μL of the first diluted solution was further transferred from wells at the third column to wells at the fourth column, followed by mixing obtained solution in the wells at the fourth column, thereby obtain a second diluted solution in a concentration of 1/9 μM. Such a three-fold serial dilution was performed 10 times, with 11 solutions in series diluted concentrations and a final diluted solution in a concentration of 0.017 nM obtained.
All diluted solutions were further diluted by 25-fold with ultrapure water, thus obtain test solutions, which were equilibrated at r.t. for 30 min before use.
To 2.5 μL of test solution, which was pipetted into each well of Assay plate using Bravo, 5 μL kinase mixture was added using the multi-channel pipettor. The mixture was centrifuged at 1000 rpm for 20 s, followed by incubation at 23° C. for 30 min. The reaction was initiated by 2.5 μL ATP mixture which was pipetted into the wells by Multidrop.
The reaction mixture of BTK kinase (10 μL) included 1.0 nM BTK, 1 μM biotin-TK1 peptide and 20 μM ATP. The reaction buffer included 50 mM Hepes (pH7.5), 10 mM MgCl2 and 0.01 mM […]. The kinase mixture was reacted in incubator at 23° C. for 90 mim.
The reaction was stopped by adding 10 μL Detection Reagent to each well of Assay plate, and the plate was left in incubator at 23° C. for 1 h before read on Envision.
Data analysis: The IC50 values of compounds were calculated using Excel fit.

T1 sequence (Q06187 whole entry): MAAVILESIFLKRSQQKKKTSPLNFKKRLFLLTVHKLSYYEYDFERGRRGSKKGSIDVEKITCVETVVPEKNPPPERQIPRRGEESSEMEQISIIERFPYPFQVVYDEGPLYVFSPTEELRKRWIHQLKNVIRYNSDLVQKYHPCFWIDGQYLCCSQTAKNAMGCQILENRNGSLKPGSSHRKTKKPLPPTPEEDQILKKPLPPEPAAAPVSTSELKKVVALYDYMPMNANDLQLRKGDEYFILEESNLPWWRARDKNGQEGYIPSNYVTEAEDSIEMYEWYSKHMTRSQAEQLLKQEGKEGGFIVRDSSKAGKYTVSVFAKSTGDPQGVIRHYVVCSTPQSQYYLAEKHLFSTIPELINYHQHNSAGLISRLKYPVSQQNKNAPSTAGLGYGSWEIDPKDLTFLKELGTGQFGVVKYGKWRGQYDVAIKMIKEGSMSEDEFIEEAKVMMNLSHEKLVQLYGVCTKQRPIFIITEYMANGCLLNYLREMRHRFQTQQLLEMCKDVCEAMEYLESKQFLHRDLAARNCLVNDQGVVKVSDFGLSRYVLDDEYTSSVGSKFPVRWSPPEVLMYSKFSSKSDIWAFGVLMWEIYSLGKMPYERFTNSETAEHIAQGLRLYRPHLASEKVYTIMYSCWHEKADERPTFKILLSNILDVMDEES

Row | SMILES | IC50 [nM]
1 | C=CC(=O)N1CCCC(n2nc(-c3ccc(Oc4ccccc4)cc3)c3c(N)nn(CC)c(=O)c32)C1 (centres unmarked) [Example 86] | 1000 to 10000
2 | C=CC(=O)N1CCC[C@@H](n2nc(-c3ccc(C4OCCO4)cc3)c3c(N)n[nH]c(=O)c32)C1 [Example 49] | < 100
3 | C=CC(=O)Nc1ccc(-c2nc3cnc(Nc4ccc(OCCOC)cc4)nc3[nH]2)cc1 [Example 22] | < 100
4 | C=CC(=O)N[C@H]1CC[C@@H](n2nc(-c3ccc(Oc4ccccn4)cc3)c3c(N)n[nH]c(=O)c32)CC1 [Example 65] | < 100
5 | C=CC(=O)Nc1ccc2cnn(-c3ncnc(Nc4ccc(OCCOC)cc4)n3)c2c1 [Example 15] | 1000 to 10000
6 | C=CC(=O)N1CCCC(n2nc(-c3ccc(Oc4ccccc4)cc3)c3cc4c(N)noc4cc32)C1 (centres unmarked) [Example 107] | 1000 to 10000
7 | C=CC(=O)Nc1cccc(-n2nc3c(=O)[nH]nc(N)c3c2-c2ccc(Oc3ccccc3)cc2)c1 [Example 69] | < 100
8 | Cc1ccn2c(=O)c(-c3cccc(-c4cn(C)c(=O)c(Nc5ccc([C@@H]6C(=O)NCCN6C)cc5)n4)c3C)ccc2c1 [Example 11] | 1000 to 10000
